Reference: article PMC10449632, “Structural basis for translation inhibition by the glycosylated drosocin peptide” (Nature Chemical Biology, 2023)
No end group written: not given here. *: point of attachment. αGalNAc = CC(=O)N[C@@H]1[C@@H](O)[C@@H](O)[C@@H](CO)O[C@@H]1*

Legend:
[1] = test system: E. coli Keio wt (BW25113); test: Antibiotic susceptibility (growth) assay, E. coli Keio wild-type; type: cell-based, Escherichia coli; details: 30 μM peptide; for Average of normalized growth: average of three biological replicates; for growth inhibition in rich medium: rich (LB) medium
Source text: Many PrAMPs use the SbmA transporter to pass through the E. coli inner membrane[4],[10],[31]; however, whether drosocin also uses SbmA remains, to our knowledge, unknown. To address this, we monitored the effect of the presence of diverse drosocin peptides (Fig. 1a,b and Supplementary Fig. 1a) on the growth of the wild-type E. coli strain BW25113 containing SbmA or lacking SbmA (ΔsbmA) (Fig. 1c,d). We compared unmodified drosocin (Dro) with various modified forms (Fig. 1a,b). The modified forms included the naturally occurring Dro1 and Dro2 that carry either a monosaccharide (α-D-GalNAc) or disaccharide (β-D-Gal(1→3)-α-D-GalNAc) attached to Thr11, respectively (Fig. 1b). In addition, we examined the previously reported[23],[24] drosocin derivatives bearing β-D-Maltosyl (Dro3), α-D-GlcNAc (Dro4), β-D-Gal (Dro5), β-D-Glc (Dro6), β-D-Lactosyl (Dro7) and β-D-Cellobiosyl (Dro8) modifications on Thr11 (Fig. 1a,b and Supplementary Fig. 1a). Finally, we also included in our analysis the synthetic unmodified drosocin derivative with proline substitutions at positions 7, 11 and 12 (Dro-3P) (Fig. 1a), which was previously reported to have similar antimicrobial activity to the monosaccharide form of drosocin[25]. Growth was monitored in both rich (LB) and minimal medium in the presence of 30 μM of each peptide and normalized with the growth in the absence of the compounds (Methods). […] We also observed no inhibition for Dro2 nor for any of the β-linked disaccharides (Dro3, Dro6 or Dro7). […] By contrast, all drosocin peptides inhibited growth of the E. coli BW25113 strain in minimal medium, albeit to different extents (Fig. 1d).
(§1) Strains E. coli Keio wild-type and E. coli Keio ΔsbmA used from the Keio knockout collection (Horizon, https://horizondiscovery.com). Wild-type E. coli SQ110 (ΔrrnGADBHC(ptRNA67))[47] and SQ171 (ΔrrnGADEHBC(pKK3535, ptRNA67))[47] strains and related mutants E. coli SQ110 A2059G and E. coli SQ171 A2503G were obtained from the previous Api137 study. E. coli strains SQ171 bearing A752G, U2609C and A752G:U2609C mutations[43] and E. coli SQ171 U2609G[48] were generated previously.
(§2) The susceptibility of E. coli strains to compounds was evaluated by monitoring the bacterial growth in presence of increasing concentrations of the compound of interest. In brief, bacteria were inoculated in a total volume of 100 μl of medium contained in a well of a 96-well microplate (round bottom, with cap, sterile; Sarstedt). The medium used was either LB, as rich medium, or ATCC medium (778 Davis and Mingioli glucose minimal medium), as minimal medium. Before inoculation, bacteria were grown up to exponential phase and then inoculated into the culture mix, containing selective antibiotic if necessary, with an initial optical density at 600 nm (OD600) of 0.05. Values measured from wells containing just the medium were used as a blank. The growth in each well was monitored by measuring the OD600 every 10 minutes for a total of 20 hours at 37 °C with shaking using a plate reader (Tecan Infinite 200 PRO). The inhibition resulting from a compound’s concentration was evaluated by normalizing the OD600 at t = 12 hours (corresponding to the end of the log phase) from the treated culture to the untreated one. For each compound, the concentrations tested were 5 μM, 10 μM and 30 μM. Each single titration assay was done in triplicate with individually prepared culture mixes. For each concentration, the standard deviation was calculated, taking into account each single replica and its specific technical error from the plate reader.

E. coli SQ171 wt = test: Antibiotic susceptibility (growth) assay, E. coli SQ171 wt; type: cell-based, Escherichia coli; details: relative to no compound, mean of 3 replicas
Source text: as §1, §2

[2] = test system: E. coli SQ171 A752G/U2609C; test: Antibiotic susceptibility (growth) assay, E. coli SQ171 A752G/U2609C; type: cell-based, Escherichia coli; details: for OD600 at t = 12 h, Normalized, Average: relative to no compound, mean of 3 replicas
Source text: In addition, we also used a strain with a U2609C–A752G double mutation, which would be predicted to restore Watson–Crick base pairing, and with three hydrogen bonds could possibly make breaking the base pair harder than with the canonical two hydrogen bonds for the A–U base pair. As a control, we also tested Dro that lacks the α-D-GalNAc modification, which we predict (assuming that Dro binds analogously to Dro1) should not interact with U2609 and, therefore, not be influenced by the conformation of the U2609–A752 base pair.
as §1, §2

[3] = test system: in vitro translation, E. coli PURExpress system, firefly luciferase (Fluc) mRNA; test: In vitro translation assay with Fluc reporter; type: biochemical, Escherichia coli; details: Fluc mRNA, luminescence; for maximum inhibition of in vitro translation: at the highest concentration tested of 150 μM
Procedure: To investigate this, we compared the effect of increasing concentrations (0–150 μM) of modified Dro1 and Dro2 with unmodified Dro, Dro-3P and Api137 using a cell-free in vitro translation system and firefly luciferase (Fluc) mRNA as a template (Fig. 1e), as we have used previously for assessing the activity of other PrAMPs[4],[6],[8],[9],[32],[33].
The in vitro translation assay was carried out as described previously[4],[8] using the E. coli PURExpress system (New England Biolabs (NEB), E6800S). Then, 1 µl of antibiotic solution was added to 5 µl of PURExpress reaction mix. Each reaction contained 10 ng μl^−1 of mRNA encoding the Fluc, which was in vitro transcribed from a pIVEX-2.3MCS vector containing the Fluc gene using T7 polymerase (Thermo Fisher Scientific). The reaction mix was incubated for 30 minutes at 32 °C while shaking (600 r.p.m.). Reactions were stopped with 5 µl of kanamycin (50 mg ml^−1) and transferred into a 96-well microplate (Greiner Lumitrac, non-binding, white, chimney). Next, 40 µl of luciferase assay substrate solution (Promega, E1501) was added, and luminescence was measured using a plate reader (Tecan Infinite 200 PRO). Nuclease-free water was added instead of antibiotic as control. Absolute luminescence values were normalized using reactions without antibiotic. All assays were done as triplicates with individually prepared reaction mix.

Substance	Average of normalized growth ([1]; LB rich medium)	Average of normalized growth ([1]; Minimal medium)	growth inhibition in minimal medium [1]	growth inhibition in rich medium [1]	OD600 at t = 12 h, Normalized, Average (E. coli SQ171 wt; 5 μM)	OD600 at t = 12 h, Normalized, Average (E. coli SQ171 wt; 30 μM)	OD600 at t = 12 h, Normalized, Average ([2]; 5 μM)	OD600 at t = 12 h, Normalized, Average ([2]; 30 μM)	tolerance of double mutant relative to the wild-type strain ([2]; U2609C–A752G double mutation vs wild-type SQ171, 30 μM)	IC50 ([3]; 0–150 μM peptide, 30 minutes at 32 °C, triplicate, read-out: half maximal inhibitory concentration (IC50), in vitro translation)	maximum inhibition of in vitro translation [3]
Dro1: naturally occurring drosocin carrying monosaccharide α-D-GalNAc attached to Thr11 (GKPRPYSPRPT(αGalNAc)SHPRPIRV; UniProt P36193 22-40, looked up)	38%	6%	highest inhibition	growth inhibition	93%	11%	70%	25%	2.5 fold	78 ± 13 µM	60%
Dro: unmodified drosocin, 19 amino acid proline-rich antimicrobial peptide lacking O-glycosylation (GKPRPYSPRPTSHPRPIRV; Drosocin; UniProt P36193 22-40, looked up)	98%	87%	lowest	inactive	86%	72%	85%	72%	–	–	20%
